According to PubChem BioAssay AID256 (DTP/NCI, 2004):
Inconclusive results and toxic doses are left out.

System: CD2F1 mice, L1210 leukemia ip, survival T/C
Assay: NCI In Vivo Anticancer Drug Screen. Data for tumor model L1210 Leukemia (intraperitoneal) in CD2F1 (CDF1) mice
Details: endpoint: mean survival time, higher = longer survival
Method in brief: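 Transplantable tumor in mice; compound-treated vs vehicle-treated groups. Read-out = treated/control ratio of the measured endpoint.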

[1] = dose: 100.0 mg/kg/injection, schedule: Q04DX003 (ip), vehicle: saline with Tween-80
[2] = dose: 75.0 mg/kg/injection, schedule: Q01DX009 (ip), vehicle: saline
[3] = dose: 200.0 mg/kg/injection, schedule: Q04DX003 (ip), vehicle: saline with Tween-80
[4] = dose: 400.0 mg/kg/injection, schedule: Q04DX003 (ip), vehicle: saline with Tween-80
[5] = dose: 100.0 mg/kg/injection, schedule: Q04DX003 (ip), vehicle: saline
[6] = dose: 200.0 mg/kg/injection, schedule: Q04DX003 (ip), vehicle: saline

With `c1ccc2c(c1)NCCN2` the T/C (dose: 25.0 mg/kg/injection, schedule: Q01DX001 (ip), vehicle: saline + alcohol) was 100 % of control, the T/C (dose: 50.0 mg/kg/injection, schedule: Q01DX001 (ip), vehicle: saline + alcohol) was 100 % of control and the T/C (dose: 100.0 mg/kg/injection, schedule: Q01DX001 (ip), vehicle: saline + alcohol) was 106 % of control.

For `Nc1cc(OCC(=O)O)c(Cl)cc1Cl`, the T/C (dose: 50.0 mg/kg/injection, schedule: Q01DX009 (ip), vehicle: Klucel (hydroxypropylcellulose) (HPC)) was 96 % of control, the T/C (dose: 100.0 mg/kg/injection, schedule: Q01DX009 (ip), vehicle: Klucel (hydroxypropylcellulose) (HPC)) was 89 % of control and the T/C (dose: 200.0 mg/kg/injection, schedule: Q01DX009 (ip), vehicle: Klucel (hydroxypropylcellulose) (HPC)) was 93 % of control.

`CCCn1c2cc([N+](=O)[O-])ccc2c(=O)c2ccc3ccccc3c21` was tested, and the T/C (dose: 50.0 mg/kg/injection, schedule: Q01DX009 (ip), vehicle: saline with Tween-80) was 97 % of control, the T/C (dose: 100.0 mg/kg/injection, schedule: Q01DX009 (ip), vehicle: saline with Tween-80) was 104 % of control and the T/C (dose: 200.0 mg/kg/injection, schedule: Q01DX009 (ip), vehicle: saline with Tween-80) was 101 % of control.

For `CN(C)Cc1cc(Cl)cc(CN(C)C)c1O`, the T/C (dose: 25.0 mg/kg/injection, schedule: Q04DX003 (ip), vehicle: saline with Tween-80) was 105 % of control, the T/C (dose: 50.0 mg/kg/injection, schedule: Q04DX003 (ip), vehicle: saline with Tween-80) was 97 % of control and the T/C [1] was 101 % of control.

In the case of `CCC1(CC)NC(=O)N(CCOS(C)(=O)=O)C1=O`, the T/C (dose: 50.0 mg/kg/injection, schedule: Q01DX001 (ip), vehicle: Klucel (hydroxypropylcellulose) (HPC)) is reported as 110 % of control, the T/C (dose: 100.0 mg/kg/injection, schedule: Q01DX001 (ip), vehicle: Klucel (hydroxypropylcellulose) (HPC)) is reported as 93 % of control and the T/C (dose: 200.0 mg/kg/injection, schedule: Q01DX001 (ip), vehicle: Klucel (hydroxypropylcellulose) (HPC)) is reported as 93 % of control.

For `O=C(COc1cccc(Cl)c1)NCc1ccccc1NC(=O)CBr`, the T/C (dose: 2.35 mg/kg/injection, schedule: Q01DX001 (ip), vehicle: saline with Tween-80) was 101 % of control, the T/C (dose: 4.7 mg/kg/injection, schedule: Q01DX001 (ip), vehicle: saline with Tween-80) was 97 % of control and the T/C (dose: 9.4 mg/kg/injection, schedule: Q01DX001 (ip), vehicle: saline with Tween-80) was 92 % of control.

`COc1ccc2c(O)c3[n+](cc2c1OC)CCc1cc2c(cc1-3)OCO2` was tested, and the T/C (dose: 75.0 mg/kg/injection, schedule: Q01DX001 (ip), vehicle: other) was 100 % of control, the T/C (dose: 150.0 mg/kg/injection, schedule: Q01DX001 (ip), vehicle: other) was 87 % of control and the T/C (dose: 300.0 mg/kg/injection, schedule: Q01DX001 (ip), vehicle: other) was 100 % of control.

`Nc1nc(=S)c2ncn(C3OC(CO)C(O)C3O)c2[nH]1` (centres undefined) was tested, and the T/C (dose: 1.0 mg/kg/injection, schedule: Q01DX005 (ip), vehicle: saline + alcohol) was 154 % of control, the T/C (dose: 2.0 mg/kg/injection, schedule: Q01DX005 (ip), vehicle: saline + alcohol) was 152 % of control and the T/C (dose: 4.0 mg/kg/injection, schedule: Q01DX005 (ip), vehicle: saline + alcohol) was 150 % of control. The T/C (dose: 10.0 mg/kg/injection, schedule: Q03DX003 (ip), vehicle: saline) was 151 % of control, the T/C (dose: 10.0 mg/kg/injection, schedule: Q04DX003 (ip), vehicle: saline) was 163 % of control and the T/C (dose: 20.0 mg/kg/injection, schedule: Q01DX007 (ip), vehicle: saline) was 107 % of control. The T/C (dose: 20.0 mg/kg/injection, schedule: Q03DX003 (ip), vehicle: saline) was 151 % of control, the T/C (dose: 20.0 mg/kg/injection, schedule: Q04DX003 (ip), vehicle: saline) was 150 % of control and the T/C (dose: 37.5 mg/kg/injection, schedule: Q01DX009 (ip), vehicle: saline) was 113 % of control. For the same compound, the T/C (dose: 40.0 mg/kg/injection, schedule: Q01DX009 (ip), vehicle: saline) was 95 % of control, the T/C (dose: 40.0 mg/kg/injection, schedule: Q04DX003 (ip), vehicle: saline) was 164 % of control and the T/C [2] was 89 % of control. For the same compound, the T/C (dose: 178.0 mg/kg/injection, schedule: Q01DX001 (ip), vehicle: saline) was 152 % of control, the T/C (dose: 267.0 mg/kg/injection, schedule: Q01DX001 (ip), vehicle: saline) was 152 % of control and the T/C (dose: 400.0 mg/kg/injection, schedule: Q01DX001 (ip), vehicle: saline) was 159 % of control.

For `CCCCNC(=S)N/N=C/c1ccccn1`, the T/C (dose: 100.0 mg/kg/injection, schedule: Q04DX002 (ip), vehicle: saline with Tween-80) was 98 % of control and the T/C (dose: 200.0 mg/kg/injection, schedule: Q04DX002 (ip), vehicle: saline with Tween-80) was 109 % of control.

In the case of `O=C(COc1cccc(Cl)c1)NCc1ccccc1`, the T/C [1] is reported as 99 % of control, the T/C [3] is reported as 96 % of control and the T/C [4] is reported as 99 % of control.

With `COCCNP(=O)(OC(C)C)OC(C)C` the T/C [5] was 100 % of control, the T/C [6] was 97 % of control and the T/C (dose: 400.0 mg/kg/injection, schedule: Q04DX003 (ip), vehicle: saline) was 101 % of control.

For `COc1ccc(C(O)(c2ccccc2)C(OC(=O)CCl)c2ccccc2)cc1` (centres undefined), the T/C (dose: 200.0 mg/kg/injection, schedule: Q01DX001 (ip), vehicle: saline with Tween-80) was 91 % of control and the T/C (dose: 400.0 mg/kg/injection, schedule: Q01DX001 (ip), vehicle: saline with Tween-80) was 89 % of control.

In the case of `O=S1(=O)CCCC1C(O)c1ccccc1` (centres undefined), the T/C (dose: 100.0 mg/kg/injection, schedule: Q04DX003 (ip), vehicle: other) is reported as 100 % of control, the T/C (dose: 200.0 mg/kg/injection, schedule: Q04DX003 (ip), vehicle: other) is reported as 95 % of control and the T/C (dose: 400.0 mg/kg/injection, schedule: Q04DX003 (ip), vehicle: other) is reported as 95 % of control.

With `CCC(C)(C[NH-])C[NH-].[Cl][Pt+2][Cl]` the T/C (dose: 1.56 mg/kg/injection, schedule: Q04DX003 (ip), vehicle: saline) was 114 % of control, the T/C (dose: 3.12 mg/kg/injection, schedule: Q04DX003 (ip), vehicle: saline) was 118 % of control and the T/C (dose: 6.25 mg/kg/injection, schedule: Q04DX003 (ip), vehicle: saline) was 124 % of control. The T/C (dose: 12.5 mg/kg/injection, schedule: Q04DX003 (ip), vehicle: saline with Tween-80) was 285 % of control and the T/C (dose: 25.0 mg/kg/injection, schedule: Q04DX003 (ip), vehicle: saline) was 312 % of control.

`O=C(CCCCC(=O)Nc1ccc(C2=NCCN2)cc1)Nc1ccc(C2=NCCN2)cc1` was tested, and the T/C [2] was 168 % of control, the T/C (dose: 150.0 mg/kg/injection, schedule: Q01DX009 (ip), vehicle: saline) was 216 % of control and the T/C (dose: 300.0 mg/kg/injection, schedule: Q01DX009 (ip), vehicle: saline) was 236 % of control.

With `COc1cccc2c1C(=O)c1c(O)c3c(c(O)c1C2=O)C[C@@](O)(C(=O)CSc1ccccc1)C[C@@H]3OC1CC(N)C(O)C(C)O1` (some centres undefined) the T/C (dose: 0.78 mg/kg/injection, schedule: Q01DX009 (ip), vehicle: water) was 107 % of control, the T/C (dose: 1.56 mg/kg/injection, schedule: Q01DX009 (ip), vehicle: water) was 106 % of control and the T/C (dose: 3.13 mg/kg/injection, schedule: Q01DX009 (ip), vehicle: water) was 101 % of control. For the same compound, the T/C (dose: 6.25 mg/kg/injection, schedule: Q01DX009 (ip), vehicle: water) was 106 % of control and the T/C (dose: 12.5 mg/kg/injection, schedule: Q01DX009 (ip), vehicle: water) was 101 % of control.

In the case of `CCCC(=O)C(CC)C(O)(C(F)(F)F)C(F)(F)F` (centres undefined), the T/C (dose: 100.0 mg/kg/injection, schedule: Q04DX003 (ip), vehicle: Klucel (hydroxypropylcellulose) (HPC)) is reported as 95 % of control, the T/C (dose: 200.0 mg/kg/injection, schedule: Q04DX003 (ip), vehicle: Klucel (hydroxypropylcellulose) (HPC)) is reported as 108 % of control and the T/C (dose: 400.0 mg/kg/injection, schedule: Q04DX003 (ip), vehicle: Klucel (hydroxypropylcellulose) (HPC)) is reported as 86 % of control.

For `COc1cccc(CN2CCCNCC2)c1`, the T/C (dose: 25.0 mg/kg/injection, schedule: Q01DX005 (ip), vehicle: water) was 96 % of control, the T/C (dose: 50.0 mg/kg/injection, schedule: Q01DX005 (ip), vehicle: water) was 96 % of control and the T/C (dose: 100.0 mg/kg/injection, schedule: Q01DX005 (ip), vehicle: water) was 94 % of control.

With `Cc1ccccc1S(=O)(=O)/C(=C(/I)c1ccccc1)c1ccccc1` the T/C (dose: 50.0 mg/kg/injection, schedule: Q04DX003 (ip), vehicle: saline) was 94 % of control, the T/C [5] was 102 % of control and the T/C [6] was 98 % of control.

With `CC(C)(C)OC(=O)Nc1cccc(O)c1` the T/C [1] was 100 % of control, the T/C [3] was 96 % of control and the T/C [4] was 93 % of control.
